From patent US11873298B2, “Compounds and uses thereof” (JANSSEN PHARMACEUTICA NV, priority 2017, dated 2024) come the findings set out here.

The target of one experiment is T1, Ole1 (Saccharomyces cerevisiae, UniProt P21147).
T1 construct: expressed in transfected cells; host or cells: S. cerevisiae ole1Δ strain (W303 pdr1Δ pdr3Δ background), plasmid pRS316 with TDH3 promoter and CYC1 terminator
T1 sequence (P21147 1-510): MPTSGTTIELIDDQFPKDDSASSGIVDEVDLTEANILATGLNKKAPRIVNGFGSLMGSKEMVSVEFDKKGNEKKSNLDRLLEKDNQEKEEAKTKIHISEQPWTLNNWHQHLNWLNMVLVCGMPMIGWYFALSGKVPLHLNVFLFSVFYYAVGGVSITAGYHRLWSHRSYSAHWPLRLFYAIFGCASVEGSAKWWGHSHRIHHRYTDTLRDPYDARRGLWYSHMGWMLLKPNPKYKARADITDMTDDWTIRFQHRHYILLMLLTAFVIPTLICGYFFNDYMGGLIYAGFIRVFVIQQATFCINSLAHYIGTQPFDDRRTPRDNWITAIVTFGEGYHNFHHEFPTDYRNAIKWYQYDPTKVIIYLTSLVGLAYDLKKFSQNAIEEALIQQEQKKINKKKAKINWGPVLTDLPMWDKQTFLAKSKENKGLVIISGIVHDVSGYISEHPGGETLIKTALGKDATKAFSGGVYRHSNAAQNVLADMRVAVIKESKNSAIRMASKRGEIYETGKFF
The experiment in a line: Growth inhibition of yeast strain expressing Ole1 as sole desaturase. Type of experiment: cell-based. The settings on record: yeast strain expressing Ole1 as sole desaturase. In outline: (§1)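 Yeast ole1Δ strain (W303 pdr1Δ pdr3Δ background) carrying plasmid-borne Ole1, SCD1 or SCD5 as sole desaturase was grown in uracil-lacking media, pre-cultured in raffinose for 6 h, then seeded in galactose medium with compound in DMSO. Growth was read as OD600 after 30° C. incubation: 24 h for Ole1, 40 h for SCD1/SCD5.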

The target of a further experiment is T2, SCD1 (Homo sapiens, UniProt O00767).
T2 construct: host or cells: S. cerevisiae ole1Δ strain (W303 pdr1Δ pdr3Δ background), plasmid pRS316 with TDH3 promoter and CYC1 terminator
T2 sequence (O00767 1-359): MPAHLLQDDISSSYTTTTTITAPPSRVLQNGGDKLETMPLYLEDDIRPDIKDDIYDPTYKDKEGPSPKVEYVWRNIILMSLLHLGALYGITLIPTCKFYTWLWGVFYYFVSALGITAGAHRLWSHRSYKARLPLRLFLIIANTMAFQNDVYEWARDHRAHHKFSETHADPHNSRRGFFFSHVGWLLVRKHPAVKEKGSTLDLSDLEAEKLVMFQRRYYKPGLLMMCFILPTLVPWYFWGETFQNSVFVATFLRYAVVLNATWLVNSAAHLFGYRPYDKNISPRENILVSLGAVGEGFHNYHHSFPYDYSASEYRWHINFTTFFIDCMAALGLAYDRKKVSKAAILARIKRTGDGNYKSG
Description: Growth inhibition of humanized yeast strain expressing SCD1 as sole desaturase. Particulars: humanized yeast strain expressing SCD1. It is filed as cell-based. In outline: as §1

Another experiment deals with T3, SCD5 (Homo sapiens, UniProt Q86SK9).
T3 construct: host or cells: S. cerevisiae ole1Δ strain (W303 pdr1Δ pdr3Δ background), plasmid pRS316 with TDH3 promoter and CYC1 terminator
T3 sequence (Q86SK9 1-330): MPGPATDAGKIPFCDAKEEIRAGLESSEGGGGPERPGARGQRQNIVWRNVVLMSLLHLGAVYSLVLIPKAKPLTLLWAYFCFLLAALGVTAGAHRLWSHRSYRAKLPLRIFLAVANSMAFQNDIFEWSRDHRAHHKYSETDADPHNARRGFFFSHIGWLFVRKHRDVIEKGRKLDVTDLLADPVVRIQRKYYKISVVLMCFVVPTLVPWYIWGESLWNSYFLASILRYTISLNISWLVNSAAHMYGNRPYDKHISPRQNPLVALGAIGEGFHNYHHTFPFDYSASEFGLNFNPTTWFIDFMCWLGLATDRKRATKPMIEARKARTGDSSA
Description: Growth inhibition of humanized yeast strain expressing SCD5 as sole desaturase. It is filed as cell-based. The settings on record: humanized yeast strain expressing SCD5. A digest of the protocol:
as §1

Experiment [1] concerns yeast strains expressing the human ApoE4. The experiment in a line: Yeast ApoE4 toxicity rescue assay (OD600 growth). Particulars: 24 h; for Emax: read-out: ApoE4 Emax; for EC50: read-out: ApoE4 EC50.
Description: The induced expression of α-synuclein and ApoE4 confers cytotoxicity, thus enabling the identification of compounds that can restore cell viability. This instantaneous/synchronous induction of α-synuclein and ApoE4 can be achieved due to the following expression control. In glucose-containing media, gene expression from the GAL1 promoter is ‘off’ and actively repressed by additional epigenetic factors. In raffinose, expression is ‘off’, but the promoter not actively repressed. Upon transition to galactose-containing media, the promoter is instantaneously turned ‘on’ to achieve robust and synchronous induction of α-synuclein or ApoE4 expression. This highly regulated induction provides a robust window for the determination of both efficacy (amplitude of protective effect) and potency (concentration of protective effect) of cytoprotective compounds.
Re-suspended compound stocks were subsequently arrayed into 384 well compound plates using automated pipetting. All other wells not receiving stock compound were filled with 10 μL of 100% DMSO using an automated plate filler (Multidrop Combi). An 11 point, 2-fold serial dilution was then performed using the robotic platform. Compound assay plates were covered with foil and stored at −20° C. until use.
Each strain was handled according to standard protocols and cultured in media composed of CSM (complete synthetic media), YNB (yeast nitrogenous base), and a 2% (w/v) carbon source (either glucose, raffinose, or galactose).
In a standard yeast assay, a single-use aliquot of cells was thawed on ice and diluted into CSM/glucose (5 mL). Cultures were grown for 8 hours at 30° C. This pre-growth enables the yeast to exit the thaw and begin to grow without expressing aSyn or ApoE4. After 8 hours, cell density (OD600) was determined and cultures diluted to an OD600 of 0.01 in CSM/raffinose for an overnight culture phase at 30° C. During this period, the active glucose repression of the GAL1 promoter was relieved; however, expression of the α-Syn/ApoE4 genes were not yet induced. After ˜16 hours of growth, cultures attain an OD600 of 0.4-0.8 and were ready to apply to assay plates containing compound.
Compound profiling assays were executed in clear-bottom 384 well plates. First, compound plates were thawed at room temperature for 45′, centrifuged at 1,000×g for 1 minute, and the foil removed. Clear 384 well assay plates were then filled with 15 μL of CSM/galactose. […] The pin tool was washed iteratively with both 50% DMSO and 100% ethanol between each assay plate. After delivering compound to each assay plate, the overnight CSM/raffinose aSyn or ApoE4 cultures were added at a 2X cell density (0.04 for aSyn and 0.08 for ApoE4) in CSM/galactose to achieve a final assay OD600 of 0.02 and 0.04 for aSyn and ApoE, respectively. The cultures (15 μL per well) were then dispensed to the compound -containing 384 well assay plates using an automated plate filler. Plates were incubated in a humidified 30° C. incubator for 40 or 24 hours for aSyn and ApoE4, respectively. The ODsoo of each assay plate was then read with a microplate reader (e.g., Perkin Elmer Envision).
The efficacy and potency of compounds were calculated according to the following. Raw data (OD600 values) were first background corrected to account for OD600 contributed by the plate and media itself. The efficacy (percent above DMSO, herein referred to as “Emax”) was calculated according to the equation: (Experimental well−DMSO control well)/(DMSO control well)*100. […] Normalized dose-response data was fit with a logistic regression curve using Spotfire (TIBCO), or similar curve-fitting software package. EC50 values were then reported along with EMax to provide both efficacy and potency measures for each analog and enable further compound design.
Experiment [2] relates to yeast strains expressing the human α-synuclein. The experiment in a line: Yeast α-synuclein toxicity rescue assay (OD600 growth). The settings on record: 40 h; for EC50: read-out: α-Syn EC50; for Emax: read-out: α-Syn Emax.

Each structure is given as a SMILES string. Some results are limits rather than exact numbers.

The IC50 is the midpoint of a concentration-inhibition curve. Low readings indicate greater potency, high ones weaker potency. A word on the EC50: it is the concentration at which the effect is half-maximal. `Cc1ccc(-c2nc(C3CCN(C(=O)C4CC(=O)N(c5ccc(C)c(C)c5)C4)CC3)no2)cc1` (centres unmarked) [Compound 50]: on Ole1, the IC50 was more than 45 µM and the “OLE1 % Max Inhibition” value was 98.10%. Moreover, at SCD1, the “SCD1 % Max Inhibition” value turned out to be 67.05%. Besides, on SCD5, the IC50 was more than 45 µM and the “SCD5 % Max Inhibition” value was found to be 46.80%. The Emax in experiment [1] turned out to be 133%. Also, in experiment [2], the EC50 stood at 7.86 µM and the Emax was 85%.
Turning to `COc1ccc(-c2nsc(C3CCN(C(=O)CNC(=O)c4ccccc4)CC3)n2)cc1OC` [Compound 35], at Ole1, the IC50 was more than 45 µM and the “OLE1 % Max Inhibition” value was 3.66%. Further, at SCD1, the IC50 was more than 45 µM and the “SCD1 % Max Inhibition” value is reported as 79.23%. Also, on SCD5, the IC50 is more than 45 µM and the “SCD5 % Max Inhibition” value was found to be 68.57%. Moreover, in experiment [1], the EC50 amounted to 1.12 µM and the Emax came to 911%. Further, in experiment [2], the EC50 is 0.052 µM and the Emax stood at 626%.
Turning to `COc1ccc(-c2noc(N3CCC(C(=O)NCCc4ccccc4)CC3)n2)cc1OC` [Compound 49], at Ole1, the IC50 was more than 45 µM and the “OLE1 % Max Inhibition” value was 34.89%. In addition, at SCD1, the IC50 was more than 45 µM and the “SCD1 % Max Inhibition” value came out at 61.29%. Besides, at SCD5, the IC50 was more than 45 µM and the “SCD5 % Max Inhibition” value was found to be 63.18%. In experiment [1], the EC50 came to 4.34 µM and the Emax was found to be 942%. Besides, in experiment [2], the concentration giving a half-maximal response (EC50) was found to be 1.47 µM and the Emax was 636%.
Turning to `CCOc1ccc(-c2noc(C3CCN(C(=O)CNC(=O)c4ccccc4)CC3)n2)cc1OC` [Compound 155], the “OLE1 % Max Inhibition” value at Ole1 was 1.65%. Besides, on SCD1, the IC50 is more than 45 µM and the “SCD1 % Max Inhibition” value worked out at 98.25%. Further, at SCD5, the midpoint of inhibition, the IC50, lay at 33.8 µM and the “SCD5 % Max Inhibition” value was determined as 67.35%. In addition, in experiment [1], the EC50 amounted to 2.16 µM and the Emax turned out to be 865%. In experiment [2], the EC50 is 0.011 µM and the Emax was 556%.
For `COc1ccc(-c2noc(C3CCN(C(=O)/C=C/C(=O)c4ccccc4)CC3)n2)cc1OC` [Compound 33], at Ole1, the IC50 was more than 45 µM and the “OLE1 % Max Inhibition” value amounted to 1.55%. In addition, on SCD1, the IC50 was more than 45 µM and the “SCD1 % Max Inhibition” value amounted to 8.14%. At SCD5, the IC50 is more than 45 µM and the “SCD5 % Max Inhibition” value turned out to be 24.10%. Moreover, in experiment [1], the EC50 is 0.717 µM and the Emax amounted to 281%. Also, in experiment [2], the EC50 worked out at 0.111 µM and the Emax was 260%.
Turning to `COc1ccc(-c2coc(C3CCN(C(=O)CNC(=O)c4ccccc4)CC3)n2)cc1OC` [Compound 37], at Ole1, the IC50 was more than 45 µM and the “OLE1 % Max Inhibition” value is given as 9.99%. Further, at SCD1, the IC50 was more than 45 µM and the “SCD1 % Max Inhibition” value stood at 81.44%. Further, at SCD5, the IC50 was more than 45 µM and the “SCD5 % Max Inhibition” value is recorded as 74.18%. Further, in experiment [1], the EC50 was 6.53 µM and the Emax worked out at 849%. In experiment [2], the EC50 was 2.21 µM and the Emax was determined as 608%.
Take `COc1ccc(-c2noc(C3CCN(C(=O)CNC(=O)c4cccc(C)c4)CC3)n2)cc1OC` [compound 14]: the results for the IC50 against Ole1, at SCD1 and against SCD5 were more than 45 µM, more than 45 µM and 27.5 µM, respectively. Besides, the EC50 in experiment [1] amounted to 1.83 µM; in experiment [2], 1.16 µM. Besides, the Emax in experiment [1] turned out to be 771%; in experiment [2] it was 463%.
Consider `COc1ccc(-c2noc(C3CCN(C(=O)[C@H]4CC(=O)N(c5ccc(C)c(C)c5)C4)CC3)n2)cc1OC` (single isomer, unassigned) [compound 67], for which the IC50 at Ole1 is more than 45 µM; at SCD1, 40.7 µM; at SCD5 it was more than 45 µM. Moreover, the EC50 in experiment [1] came to 17.4 µM; in experiment [2] it was 7.38 µM. Further, the values for the Emax in experiment [1] and in experiment [2] were 420% and 255%, respectively.
With `CCOc1ccc(-c2noc(C3CCN(C(=O)NCCc4ccccc4)CC3)n2)cc1OC` [compound 83], the IC50 against Ole1, against SCD1 and at SCD5 was more than 45 µM throughout. For the same compound, the results for the Emax in experiment [1] and in experiment [2] were 567% and 151%, respectively. Moreover, the EC50 in experiment [2] is 9.31 µM.
As for `CCOc1ccc(-c2noc(C3CCN(C(=O)c4cnc(-c5ccccc5)[nH]4)CC3)n2)cc1OC` [compound 98], the values for the IC50 against Ole1, on SCD1 and against SCD5 were more than 45 µM, more than 45 µM and 41.1 µM, respectively. The EC50 in experiment [1] came to 9.75 µM; in experiment [2], 8.01 µM. Also, the Emax was determined as 650% in experiment [1] and 386% in experiment [2].
In the case of `COc1ccc(-c2noc(C3CCN(C(=O)CNc4nccc5ccccc45)CC3)n2)cc1OC` [Compound 55], on Ole1, the IC50 is more than 45 µM and the “OLE1 % Max Inhibition” value is recorded as 114.12%. On SCD1, the IC50 amounted to 33.7 µM and the “SCD1 % Max Inhibition” value worked out at 74.99%. On SCD5, the half-inhibitory concentration (IC50) was more than 45 µM and the “SCD5 % Max Inhibition” value is on record as 74.78%. Also, in experiment [1], the concentration giving a half-maximal response (EC50) turned out to be 7.9 µM and the Emax was 29%. Also, in experiment [2], the EC50 worked out at 23.8 µM and the Emax came out at 47%.
Compound `COc1ccc(-c2noc(C3CCN(C(=O)[C@@H]4CC(=O)N(c5ccccc5)C4)CC3)n2)cc1OC` [compound 66] had an IC50 against Ole1 of more than 45 µM. The values for the EC50 in experiment [1] and in experiment [2] were 21.2 µM and 11.1 µM, respectively. The Emax in experiment [1] came to 790%; in experiment [2], 350%.
On the same counts, the results for `COc1ccc(-c2noc(C3CCN(C(=O)[C@H]4CC(=O)N(c5ccccc5)C4)CC3)n2)cc1OC` [compound 65] are more than 45 µM, 0.987 µM, 0.036 µM, 779% and 643%.
Take `COc1ccc(-c2noc(C3CCN(C(=O)C4CC(=O)N(c5ccccc5)C4)CC3)n2)cc1OC` (centres unmarked) [compound 18]: the IC50 on Ole1 and at SCD5 was more than 45 µM each time. For the same compound, the EC50 in experiment [1] was determined as 1.51 µM; in experiment [2], 0.266 µM. The Emax in experiment [1] amounted to 826%; in experiment [2], 452%.
For the compound `COc1ccc(-c2noc(C3CCN(C(=O)CN(C)C(=O)c4ccccc4)CC3)n2)cc1OC` [compound 22], the results for the IC50 against Ole1 and at SCD5 were 40.5 µM and 30 µM, respectively. Moreover, the Emax in experiment [1] came out at 372%; in experiment [2] it was 334%. In experiment [2], the EC50 is 8.42 µM.
In the case of `COc1ccc(-c2noc(C3CCN(C(=O)Cc4cncc(C)n4)CC3)n2)cc1OC` [Compound 45], the EC50 came to 29.3 µM in experiment [1] and 26 µM in experiment [2]. Also, the Emax in experiment [1] was found to be 19%; in experiment [2] it was 121%.
For the compound `COc1ccc(-c2noc(C3CCN(C(=O)[C@@H]4CC(=O)N(c5ccc(C)c(C)c5)C4)CC3)n2)cc1OC` [compound 68], the IC50 against Ole1 was more than 45 µM. Further, the EC50 was 3.12 µM in experiment [1] and 1.86 µM in experiment [2]. Moreover, the figures for the Emax in experiment [1] and in experiment [2] were 775% and 652%, respectively.
As to `CC1(C)CC(=O)c2c(O)cc(OCC(=O)N3CCC(c4nc(-c5ccccc5)no4)CC3)cc2O1` [compound 76], in experiment [1], the EC50 turned out to be 14.8 µM and the Emax came out at 162%. Besides, in experiment [2], the EC50 was 9.92 µM and the Emax turned out to be 76%.
